Read-outs that look alike come from different tables or passages of the source.
How the values were obtained:
BACE1 [1] = biological target: T1, BACE1 (Homo sapiens (Human), UniProt P56817); assay: BACE1 AlphaScreen assay (displacement of biotinylated BACE1 binding site probe); conditions: read-out: BACE1 AS IC50
Description: (§1) BACE1 activity can be assessed in an AlphaScreen® assay. Compounds to be assessed (e.g. compounds as described in the above examples) are serially diluted 1:4 in DMSO, then plated by diluting 10 μL of compound with 40 μl of assay buffer (1×PBS, 0.01% Tween-20, pH 7.0, 0.05% BSA). The diluted compound is transferred (4 μL per well) to a 386 well assay plate and 4 μL of BACE1 enzyme ([…]) is added and incubated for 15 minutes. This assay uses a probe that is a BACE1 binding sight ligand linked to biotin, which can be displaced by test compound dependent on compound binding affinity. This of biotinylated probe (4 μL) is added and incubated for 1 hour, followed with 4 μL of donor and acceptor bead mixture and incubated for 2 hours. The fluorescent signal is read on a plate reader and the value as a function of compound concentration is used to determine the IC50. Compounds are also assessed for BACE1 and Cathepsin D activity using an FP Assay. Compounds to be assessed (e.g. compounds as described in the above examples) are serially diluted 1:3 with DMSO and each concentration point is transferred to a 96 well plate, 6 μL per well, followed by addition of 194 μL of assay buffer (100 mM sodium acetate, pH 4.5 with 0.001% Tween-20). A 10 μL compound sample from this plate is transferred to a well of a 384 well plate and combined with 10 μL per well of BACE1 enzyme (0.3 nM in assay buffer) or Cathepsin D enzyme (1.8 nM in assay buffer) and the plate is incubated at room temperature for 30 minutes.

[2] = tested on: BACE1 inhibition in HEKp293 cells transfected with APP751 gene (SWE293); assay: SWE293 cellular assay: reduction of Aβ peptide production, ELISA; assay type: cell-based; conditions: Homo sapiens, read-out: SWE293 ED50
Description: BACE1 inhibition is also assessed in a cellular assay. HEKp293 cells transfected with APP751 gene (SWE293, American Type Culture Collection CRL-1563) are used to assess compounds for reduction in levels of Aβ peptide production. SWE293 cell medium is DMEM supplemented with 10% fetal bovine serum and 2 mM L-glutamine, 1.0 mM sodium pyruvate, 25 mM Hepes Buffer, 0.4 mg/mL geneticin (G418, Gibco BRL 860-181IIJ). Cells are maintained diluting 1:10 for 4 days in T-150 flask and 35 mL of cell media. For plating, cells are rinsed with 5 mL of 1×PBS, trypsinized with 4 mL of 0.05% Tripsin for 1 minute, and 12 mL of cell media is added. These are centrifuged at 1000 rpm for 4 minutes and the media aspirated, then 8 mL of media per flask is added. Based on cell count, appropriate amounts of cell and cell media are combined, and 180 μl per well are plated (96 well) and the plates are incubated overnight at 37° C., 5% CO2. Compounds to be tested are serially diluted 1:3 in DMSO and twice in media (without G418) in V-bottom plates and incubated at room temperature. Plated cells are washed with media, 3×50 μL per well and 17 μL per well of appropriate dilution of compound is added. Plates are incubated for 2 hours, and the wash steps, compound addition and incubation are repeated. Sample is transferred to capture plate (prepared with 266 antibody, see e.g. Johnson-Wood et al., PNAS February 1997, 94: 1550-1555), along with a standard curve of Aβ-40. ELISA assay is used to assess Aβ levels, washing with TBS, 0.05% Tween20 pH 7.5, then adding 1.3 mg/mL 3D6 antibody 1:900 in specimen diluents with thimericol is added (100 μl per well) and incubated for 1 hour. Wash step is repeated and Streptavidin-AP diluted 1:1000 in specimen diluents with thimerisol is added (100 μL per well) and incubated for 1 hour. Wash step is repeated and fluorescent substrate is added, 100 μL per well and incubated for 10 minutes followed by reading the fluorescent signal on a plate reader.

Cathepsin D = Cathepsin D (Homo sapiens (Human), UniProt P07339); assay: Cathepsin D FP assay; assay type: biochemical; conditions: pH 4.5, read-out: CatD FP IC50
Description: as §1

BACE1 [3] = biological target: T1, BACE1; assay: BACE1 FP assay; assay type: biochemical; conditions: pH 4.5
Description: as §1

[4] = dose at which Aβ level is reduced by 50%, HEKp293 SWE293 cells

Sequence of Cathepsin D (P07339 65-412, species assumed): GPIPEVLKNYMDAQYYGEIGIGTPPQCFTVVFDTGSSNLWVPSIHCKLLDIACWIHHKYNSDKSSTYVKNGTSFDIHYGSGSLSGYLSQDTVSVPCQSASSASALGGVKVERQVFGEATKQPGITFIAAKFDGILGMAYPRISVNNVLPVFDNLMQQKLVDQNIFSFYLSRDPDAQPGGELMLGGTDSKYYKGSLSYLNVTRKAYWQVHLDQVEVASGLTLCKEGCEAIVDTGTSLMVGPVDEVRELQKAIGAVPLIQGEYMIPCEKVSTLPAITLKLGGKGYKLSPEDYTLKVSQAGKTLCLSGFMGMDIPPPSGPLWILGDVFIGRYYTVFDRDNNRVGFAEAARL
T1 sequence (P56817 46-501): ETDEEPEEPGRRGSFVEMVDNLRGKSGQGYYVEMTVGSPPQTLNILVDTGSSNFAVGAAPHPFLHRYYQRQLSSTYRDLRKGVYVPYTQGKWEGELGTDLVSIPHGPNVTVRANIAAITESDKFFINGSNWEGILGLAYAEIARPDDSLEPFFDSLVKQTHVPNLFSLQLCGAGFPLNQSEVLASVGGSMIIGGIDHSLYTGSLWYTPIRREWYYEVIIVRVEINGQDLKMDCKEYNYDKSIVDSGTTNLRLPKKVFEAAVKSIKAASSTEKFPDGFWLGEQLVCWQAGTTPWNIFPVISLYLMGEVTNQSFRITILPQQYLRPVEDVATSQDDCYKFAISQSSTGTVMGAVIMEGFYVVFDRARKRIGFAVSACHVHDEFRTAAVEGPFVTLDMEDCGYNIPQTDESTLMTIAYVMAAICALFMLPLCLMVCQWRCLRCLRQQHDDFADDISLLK

Structure (SMILES)	IC50 (BACE1 [1]) [nM]	IC50 (Cathepsin D) [µM]	IC50 (BACE1 [3]) [nM]	IC50 [2, 4] [nM]	IC50 [2] [nM]
CCCn1cc(-c2ccc(F)c(C3(C)CC4(CCOCC4)OC(N)=N3)c2)cn1 (stereo not shown) [Compound 8-107, 4-(2-fluoro-5-(1-propyl-1H-pyrazol-4-yl)phenyl)-4-methyl-1,9-dioxa-3-azaspiro[5.5]undec-2-en-2-amine]	1680	20.8	34100	1720	
CC#Cc1cncc(-c2cc([C@]3(C)CC4(CCOCC4)OC(N)=N3)sc2C)c1 [Compound 8-108, (S)-4-methyl-4-(5-methyl-4-(5-(prop-1-ynyl)pyridin-3-yl)thiophen-2-yl)-1,9-dioxa-3-azaspiro[5.5]undec-2-en-2-amine]	17.5	9.32	1120	485	
CC#Cc1cncc(-c2csc(C3(C)CC4(CCC(F)(F)CC4)OC(N)=N3)c2)c1 (stereo not shown) [Compound 8-109, 9,9-difluoro-4-methyl-4-(4-(5-(prop-1-ynyl)pyridin-3-yl)thiophen-2-yl)-1-oxa-3-azaspiro[5.5]undec-2-en-2-amine]	68	6.29	1160	621	
CC#Cc1cncc(-c2csc([C@]3(C)CC4(CCC(F)(F)CC4)OC(N)=N3)c2)c1 [Compound 8-110, (S)-9,9-difluoro-4-methyl-4-(4-(5-(prop-1-ynyl)pyridin-3-yl)thiophen-2-yl)-1-oxa-3-azaspiro[5.5]undec-2-en-2-amine]	26	5.57	960	305	
CC#Cc1cncc(-c2ccc(F)c([C@]3(C)CC4(CCC4)OC(N)=N3)c2)c1 [Compound 8-111, (S)-8-(2-fluoro-5-(5-(prop-1-ynyl)pyridin-3-yl)phenyl)-8-methyl-5-oxa-7-azaspiro[3.5]non-6-en-6-amine]	88	5.08	3510	391	
CC#Cc1cncc(-c2csc(C3(C)CC4(CCOCC4)SC(N)=N3)c2)c1 (stereo not shown) [Compound 8-113, 4-methyl-4-(4-(5-(prop-1-ynyl)pyridin-3-yl)thiophen-2-yl)-9-oxa-1-thia-3-azaspiro[5.5]undec-2-en-2-amine]	< 7	1.88	160	184	
CC#Cc1cncc(-c2csc(C3(C)N=C(N)OC4(CCOCC4)C3(F)F)c2)c1 (stereo not shown) [Compound 8-114, 5,5-difluoro-4-methyl-4-(4-(5-(prop-1-ynyl)pyridin-3-yl)thiophen-2-yl)-1,9-dioxa-3-azaspiro[5.5]undec-2-en-2-amine]	220	5.54	626	2120	
CC1(c2cc(NC(=O)c3ccc(Cl)cn3)ccc2F)CC2(CCOCC2)OC(N)=N1 (stereo not shown) [Compound 9-121, N-(3-(2-amino-4-methyl-1,9-dioxa-3-azaspiro[5.5]undec-2-en-4-yl)-4-fluorophenyl)-5-chloropicolinamide]	9	> 30	73		6
C[C@@]1(c2cc(NC(=O)c3ccc(Cl)cn3)ccc2F)CC2(CCOCC2)OC(N)=N1 [Compound 9-122, (S)—N-(3-(2-amino-4-methyl-1,9-dioxa-3-azaspiro[5.5]undec-2-en-4-yl)-4-fluorophenyl)-5-chloropicolinamide]	12	> 30	59		4

Further lines, with some results ahead:

IC50 (BACE1 [1]) [nM]	IC50 (Cathepsin D) [µM]	IC50 (BACE1 [3]) [nM]	Structure (SMILES)	IC50 [2, 4] [nM]	IC50 [2] [nM]
19	> 30	282	CC1(c2cc(NC(=O)c3ccc(F)cn3)ccc2F)CC2(CCOCC2)OC(N)=N1 (stereo not shown) [Compound 9-120, N-(3-(2-amino-4-methyl-1,9-dioxa-3-azaspiro[5.5]undec-2-en-4-yl)-4-fluorophenyl)-5-fluoropicolinamide]	13	
8.7	> 30	270	C[C@@]1(c2cc(NC(=O)c3ccc(F)cn3)ccc2F)CC2(CCC(F)(F)CC2)OC(N)=N1 [Compound 9-123, (S)—N-(3-(2-amino-9,9-difluoro-4-methyl-1-oxa-3-azaspiro[5.5]undec-2-en-4-yl)-4-fluorophenyl)-5-fluoropicolinamide]	19	
4.5	> 30	60	C[C@@]1(c2cc(NC(=O)c3ccc(Cl)cn3)ccc2F)CC2(CCC(F)(F)CC2)OC(N)=N1 [Compound 9-124, (S)—N-(3-(2-amino-9,9-difluoro-4-methyl-1-oxa-3-azaspiro[5.5]undec-2-en-4-yl)-4-fluorophenyl)-5-chloropicolinamide]	11	
29	> 30	366	CC1(c2cc(NC(=O)c3ccc(F)cn3)ccc2F)CC2(CCC2)OC(N)=N1 (stereo not shown) [Compound 9-125, N-(3-(6-amino-8-methyl-5-oxa-7-azaspiro[3.5]non-6-en-8-yl)-4-fluorophenyl)-5-fluoropicolinamide]	67	
11	> 30	321	C[C@@]1(c2cc(NC(=O)c3ccc(F)cn3)ccc2F)CC2(CCC2)OC(N)=N1 [Compound 9-126, (S)—N-(3-(6-amino-8-methyl-5-oxa-7-azaspiro[3.5]non-6-en-8-yl)-4-fluorophenyl)-5-fluoropicolinamide]	80	
1310	> 30	7440	C[C@]1(c2cc(NC(=O)c3ccc(F)cn3)ccc2F)CC2(CCC2)OC(N)=N1 [Compound 9-127, (R)—N-(3-(6-amino-8-methyl-5-oxa-7-azaspiro[3.5]non-6-en-8-yl)-4-fluorophenyl)-5-fluoropicolinamide]	> 10000	
4	> 30	112	C[C@@]1(c2cc(NC(=O)c3ccc(F)cn3)ccc2F)CC2(CCOCC2)OC(N)=N1 [Compound 9-128, (S)—N-(3-(2-amino-4-methyl-1,9-dioxa-3-azaspiro[5.5]undec-2-en-4-yl)-4-fluorophenyl)-5-fluoropicolinamide]	9	
8.3	> 30	107	C[C@@]1(c2cc(NC(=O)c3ccc(Cl)cn3)ccc2F)CC2(CCC2)OC(N)=N1 [Compound 9-129, (S)—N-(3-(6-amino-8-methyl-5-oxa-7-azaspiro[3.5]non-6-en-8-yl)-4-fluorophenyl)-5-chloropicolinamide]	37	
6	> 30	46	C[C@@]1(c2cc(NC(=O)c3ccc(C#N)cn3)ccc2F)CC2(CCC2)OC(N)=N1 [Compound 9-130, (S)—N-(3-(6-amino-8-methyl-5-oxa-7-azaspiro[3.5]non-6-en-8-yl)-4-fluorophenyl)-5-cyanopicolinamide]	5.4	
5.7	> 30	87	C[C@@]1(c2cc(NC(=O)c3ncc(Cl)cc3F)ccc2F)CC2(CCC2)OC(N)=N1 [Compound 9-131, (S)—N-(3-(6-amino-8-methyl-5-oxa-7-azaspiro[3.5]non-6-en-8-yl)-4-fluorophenyl)-5-chloro-3-fluoropicolinamide]	46	

Reference: patent US9493485B2, “Spirocyclic dihydro-thiazine and dihydro-oxazine BACE inhibitors, and compositions and uses thereof” (Imago Pharmaceuticals, Inc., priority 2012, dated 2016)
